Results: US9783573B2, “IAP antagonists” (BRISTOL-MYERS SQUIBB COMPANY, priority 2012, dated 2017)

Molecular target: N-His-Tb-BIR3 (241-356, XIAP) (Homo sapiens (Human), UniProt P98170)
Experiment: biochemical
Type: binding
Details: fluoresceinated modified SMAC peptide, fluorescence polarization; read-out: XIAP BIR3 FPA IC50

Question: How did the IC50 turn out when `CN[C@@H](C)C(=O)N[C@H](C(=O)N1Cc2cc(NC(=O)CCC(=O)N[C@H]3C[C@@H](C(=O)N[C@@H]4CCCc5ccccc54)N(C(=O)[C@@H](NC(=O)[C@H](C)NC)C(C)(C)C)C3)ccc2C[C@H]1C(=O)N[C@@H]1CCCc2ccccc21)C(C)(C)C` [Example 1, N^1—((S)-2-((S)-3,3-Dimethyl-2-((S)-2-(methylamino)propanamido)butanoyl)-3-(((R)-1,2,3,4-tetrahydronaphthalen-1-yl)carbamoyl)-1,2,3,4-tetrahydroisoquinolin-7-yl)-N^4-((3S,5S)-1-((S)-3,3-dimethyl-2-((S)-2-(methylamino)propanamido)butanoyl)-5-(((R)-1,2,3,4-tetrahydronaphthalen-1-yl)carbamoyl)pyrrolidin-3-yl)succinamide] was run?
Answer: The IC50 was 61 nM.

Question: With `CN[C@@H](C)C(=O)N[C@H](C(=O)N1Cc2cc(N(C(=O)C3(C(N)=O)CC3)[C@H]3C[C@@H](C(=O)N[C@@H]4CCCc5ccccc54)N(C(=O)[C@@H](NC(=O)[C@H](C)NC)C(C)(C)C)C3)ccc2C[C@H]1C(=O)N[C@@H]1CCCc2ccccc21)C(C)(C)C` [Example 4, N-((S)-2-((S)-3,3-Dimethyl-2-((S)-2-(methylamino)propanamido)butanoyl)-3-(((R)-1,2,3,4-tetrahydronaphthalen-1-yl)carbamoyl)-1,2,3,4-tetrahydroisoquinolin-7-yl)-N-((3S,5S)-1-((S)-3,3-dimethyl-2-((S)-2-(methylamino)propanamido)butanoyl)-5-(((R)-1,2,3,4-tetrahydronaphthalen-1-yl)carbamoyl)pyrrolidin-3-yl)cyclopropane-1,1-dicarboxamide] as the compound, how does the IC50 read?
Answer: The IC50 was 53 nM.

Question: Which IC50 does the source give for `CN[C@@H](C)C(=O)N[C@H](C(=O)N1Cc2cc(N(C(=O)C3(C(N)=O)CCC3)[C@H]3C[C@@H](C(=O)N[C@@H]4CCCc5ccccc54)N(C(=O)[C@@H](NC(=O)[C@H](C)NC)C(C)(C)C)C3)ccc2C[C@H]1C(=O)N[C@@H]1CCCc2ccccc21)C(C)(C)C` [Example 5, N-((S)-2-((S)-3,3-Dimethyl-2-((S)-2-(methylamino)propanamido)butanoyl)-3-(((R)-1,2,3,4-tetrahydronaphthalen-1-yl)carbamoyl)-1,2,3,4-tetrahydroisoquinolin-7-yl)-N-((3S,5S)-1-((S)-3,3-dimethyl-2-((S)-2-(methylamino)propanamido)butanoyl)-5-(((R)-1,2,3,4-tetrahydronaphthalen-1-yl)carbamoyl)pyrrolidin-3-yl)cyclobutane-1,1-dicarboxamide] here?
Answer: The IC50 was 69 nM.

Question: For `CN[C@@H](C)C(=O)N[C@H](C(=O)N1Cc2cc(NC(=O)C3CC4(C3)CC(C(=O)N[C@H]3C[C@@H](C(=O)N[C@@H]5CCCc6ccccc65)N(C(=O)[C@@H](NC(=O)[C@H](C)NC)C(C)(C)C)C3)C4)ccc2C[C@H]1C(=O)N[C@@H]1CCCc2ccccc21)C(C)(C)C` (stereo partly drawn) [Example 7, N^2-((S)-2-((S)-3,3-Dimethyl-2-((S)-2-(methylamino)propanamido)butanoyl)-3-(((R)-1,2,3,4-tetrahydronaphthalen-1-yl)carbamoyl)-1,2,3,4-tetrahydroisoquinolin-7-yl)-N^6-((3S,5S)-1-((S)-3,3-dimethyl-2-((S)-2-(methylamino)propanamido)butanoyl)-5-(((R)-1,2,3,4-tetrahydronaphthalen-1-yl)carbamoyl)pyrrolidin-3-yl)spiro[3.3]heptane-2,6-dicarboxamide], which IC50 is on record?
Answer: The IC50 was 83 nM.

Question: `CN[C@@H](C)C(=O)N[C@H](C(=O)N1Cc2cc(NC(=O)CCc3ccc(C(=O)N[C@H]4C[C@@H](C(=O)N[C@@H]5CCCc6ccccc65)N(C(=O)[C@@H](NC(=O)[C@H](C)NC)C(C)(C)C)C4)cc3)ccc2C[C@H]1C(=O)N[C@@H]1CCCc2ccccc21)C(C)(C)C` [Example 8, (S)-2-((S)-3,3-Dimethyl-2-((S)-2-(methylamino)propanamido)butanoyl)-7-(3-(4-(((3S,5S)-1-((S)-3,3-dimethyl-2-((S)-2-(methylamino)propanamido)butanoyl)-5-(((R)-1,2,3,4-tetrahydronaphthalen-1-yl)carbamoyl)pyrrolidin-3-yl)carbamoyl)phenyl)propanamido)-N-((R)-1,2,3,4-tetrahydronaphthalen-1-yl)-1,2,3,4-tetrahydroisoquinoline-3-carboxamide] was tested. Which IC50 did it give?
Answer: The IC50 was 57 nM.

Question: How did the IC50 turn out when `CN[C@@H](C)C(=O)N[C@H](C(=O)N1Cc2cc(NC(=O)c3ccc(CCC(=O)N[C@H]4C[C@@H](C(=O)N[C@@H]5CCCc6ccccc65)N(C(=O)[C@@H](NC(=O)[C@H](C)NC)C(C)(C)C)C4)cc3)ccc2C[C@H]1C(=O)N[C@@H]1CCCc2ccccc21)C(C)(C)C` [Example 9, (S)-2-((S)-3,3-Dimethyl-2-((S)-2-(methylamino)propanamido)butanoyl)-7-(4-(3-(((3S,5S)-1-((S)-3,3-dimethyl-2-((S)-2-(methylamino)propanamido)butanoyl)-5-(((R)-1,2,3,4-tetrahydronaphthalen-1-yl)carbamoyl)pyrrolidin-3-yl)amino)-3-oxopropyl)benzamido)-N-((R)-1,2,3,4-tetrahydronaphthalen-1-yl)-1,2,3,4-tetrahydroisoquinoline-3-carboxamide] was run?
Answer: Its IC50 is 65 nM.

Question: With `CN[C@@H](C)C(=O)N[C@H](C(=O)N1Cc2cc(NC(=O)c3ccc(C(=O)Nc4ccc5c(c4)CN(C(=O)[C@@H](NC(=O)[C@H](C)NC)C(C)(C)C)[C@H](C(=O)N[C@H](C)c4ccccc4F)C5)cc3)ccc2C[C@H]1C(=O)N[C@H](C)c1ccccc1F)C(C)(C)C` [Example 12, N^1,N^4-bis((S)-2-((S)-3,3-Dimethyl-2-((S)-2-(methylamino)propanamido)butanoyl)-3-(((R)-1-(2-fluorophenyl)ethyl)carbamoyl)-1,2,3,4-tetrahydroisoquinolin-7-yl)terephthalamide] as the compound, how does the IC50 read?
Answer: Its IC50 is 130 nM.

Question: How did the IC50 turn out when `CN[C@@H](C)C(=O)N[C@H](C(=O)N1Cc2cc(NC(=O)c3ccc(C(=O)Nc4ccc5c(c4)CN(C(=O)[C@@H](NC(=O)[C@H](C)NC)C(C)(C)C)[C@H](C(=O)N[C@@H](COC)c4ccccc4)C5)cc3)ccc2C[C@H]1C(=O)N[C@@H](COC)c1ccccc1)C(C)(C)C` [Example 14, N^1,N^4-bis((S)-2-((S)-3,3-Dimethyl-2-((S)-2-(methylamino)propanamido)butanoyl)-3-(((R)-2-methoxy-1-phenylethyl)carbamoyl)-1,2,3,4-tetrahydroisoquinolin-7-yl)terephthalamide] was run?
Answer: The IC50 was 130 nM.

Question: How did the IC50 turn out when `CC[C@H](NC)C(=O)N[C@H](C(=O)N1Cc2cc(NC(=O)c3ccc(C(=O)N[C@H]4C[C@@H](C(=O)N[C@@H]5CCCc6ccccc65)N(C(=O)[C@@H](NC(=O)[C@H](C)NC)C(C)(C)C)C4)cc3)ccc2C[C@H]1C(=O)N[C@@H]1CCCc2ccccc21)C(C)(C)C` [Example 15, N^1-((S)-2-((S)-3,3-Dimethyl-2-((S)-2-(methylamino)butanamido)butanoyl)-3-(((R)-1,2,3,4-tetrahydronaphthalen-1-yl)carbamoyl)-1,2,3,4-tetrahydroisoquinolin-7-yl)-N^4-((3S,5S)-1-((S)-3,3-dimethyl-2-((S)-2-(methylamino)propanamido)butanoyl)-5-(((R)-1,2,3,4-tetrahydronaphthalen-1-yl)carbamoyl)pyrrolidin-3-yl)terephthalamide] was run?
Answer: Its IC50 is 110 nM.

Question: Which IC50 does the source give for `CN[C@@H](C)C(=O)N[C@H](C(=O)N1Cc2cc(C(=O)Nc3ccc(C(=O)N[C@H]4C[C@@H](C(=O)N[C@@H]5CCCc6ccccc65)N(C(=O)[C@@H](NC(=O)[C@H](C)NC)C(C)(C)C)C4)cc3)ccc2C[C@H]1C(=O)N[C@@H]1CCCc2ccccc21)C(C)(C)C` [Example 27, (S)-2-((S)-3,3-Dimethyl-2-((S)-2-(methylamino)propanamido)butanoyl)-N^7-(4-(((3S,5S)-1-((S)-3,3-dimethyl-2-((S)-2-(methylamino)propanamido)butanoyl)-5-(((R)-1,2,3,4-tetrahydronaphthalen-1-yl)carbamoyl)pyrrolidin-3-yl)carbamoyl)phenyl)-N^3—((R)-1,2,3,4-tetrahydronaphthalen-1-yl)-1,2,3,4-tetrahydroisoquinoline-3,7-dicarboxamide] here?
Answer: The IC50 was 73 nM.

Question: With `CN[C@@H](C)C(=O)N[C@H](C(=O)N1Cc2cc(C(=O)NC3(C(=O)N[C@H]4C[C@@H](C(=O)N[C@@H]5CCCc6ccccc65)N(C(=O)[C@@H](NC(=O)[C@H](C)NC)C(C)(C)C)C4)CC3)ccc2C[C@H]1C(=O)N[C@@H]1CCCc2ccccc21)C(C)(C)C` [Example 28, (S)-2-((S)-3,3-Dimethyl-2-((S)-2-(methylamino)propanamido)butanoyl)-N7-(1-(((3S,5S)-1-((S)-3,3-dimethyl-2-((S)-2-(methylamino)propanamido)butanoyl)-5-(((R)-1,2,3,4-tetrahydronaphthalen-1-yl)carbamoyl)pyrrolidin-3-yl)carbamoyl)cyclopropyl)-N3((R)-1,2,3,4-tetrahydronaphthalen-1-yl)-1,2,3,4-tetrahydroisoquinoline-3,7-dicarboxamide] as the compound, how does the IC50 read?
Answer: The IC50 was 98 nM.

Same assay, conditions: read-out: XIAP BIR3 FPA IC50

Question: How did the IC50 turn out when `CN[C@@H](C)C(=O)N[C@H](C(=O)N1Cc2cc(NC(=O)C(F)(F)C(F)(F)C(=O)N[C@H]3C[C@@H](C(=O)N[C@@H]4CCCc5ccccc54)N(C(=O)[C@@H](NC(=O)[C@H](C)NC)C(C)(C)C)C3)ccc2C[C@H]1C(=O)N[C@@H]1CCCc2ccccc21)C(C)(C)C` [Example 17, N^1—((S)-2-((S)-3,3-Dimethyl-2-((S)-2-(methylamino)propanamido)butanoyl)-3-(((R)-1,2,3,4-tetrahydronaphthalen-1-yl)carbamoyl)-1,2,3,4-tetrahydroisoquinolin-7-yl)-N^4-((3S,5S)-1-((S)-3,3-dimethyl-2-((S)-2-(methylamino)propanamido)butanoyl)-5-(((R)-1,2,3,4-tetrahydronaphthalen-1-yl)carbamoyl)pyrrolidin-3-yl)-2,2,3,3-tetrafluorosuccinamide] was run?
Answer: Its IC50 is 56 nM.
